Results: patent US12480137B2, “Plants having increased tolerance to herbicides” (BASF SE, priority 2014, dated 2025)

How the values were obtained:
Assay type in all cases: in vivo, Arabidopsis thaliana
A. thaliana WT L. erecta [1] = assay: Greenhouse phytotox, pre-emergent treatment
Experimental: (§1) Additionally, M2 or M3 Arabidopsis plants are tested for improved tolerance to cellulose biosynthesis-inhibiting herbicides in greenhouse studies (e. g. with the following cellulose biosynthesis-inhibiting herbicides: 6-cyclopentyl-N4-(2,3,4,5,6-pentafluorophenyl)-1,3,5-triazine-2,4-diamine; 6-(1-fluoro-1-methyl-ethyl)-N4-(2,3,4,5,6-pentafluorophenyl)-1,3,5-triazine-2,4-diamine; N4-(4-chloro-3,5,6-trifluoro-2-pyridyl)-6-(1-fluoro-1-methyl-ethyl)-1,3,5-triazine-2,4-diamine; 6-(2,6-difluorophenyl)-N4-(2,3,5,6-tetrafluorophenyl)-1,3,5-triazine-2,4-diamine; N4-(4-bromo-2,3,5,6-tetrafluoro-phenyl)-6-(1-fluoro-1-methyl-ethyl)-1,3,5-triazine-2,4-diamine.

[2] = test system: Cesa1_G1009D, fpx2-3 mutant line; assay: Greenhouse phytotox, pre-emergent treatment
Experimental: as §1

[3] = test system: Cesa1_G1013R, fpx2-1 mutant line; assay: Greenhouse phytotox, pre-emergent treatment
Experimental: as §1

[4] = test system: Cesa1_P1010L, fpx2-2 mutant line; assay: Greenhouse phytotox, pre-emergent treatment
Experimental: as §1

[5] = test system: Cesa3_S1037F, fpx1-2 mutant line; assay: Greenhouse phytotox, pre-emergent treatment
Experimental: as §1

[6] = test system: Cesa3_S1040L, fpx1-1 mutant line; assay: Greenhouse phytotox, pre-emergent treatment
Experimental: as §1

[7] = test system: Cesa3_S983F, fpx1-3 mutant line; assay: Greenhouse phytotox, pre-emergent treatment
Experimental: as §1

A. thaliana WT L. erecta [8] = assay: Greenhouse phytotox, post-emergent treatment 6 weeks after sowing
Experimental: as §1

[9] = test system: Cesa1_G1009D, fpx2-3 mutant line; assay: as above
Experimental: as §1

[10] = test system: Cesa1_G1013R, fpx2-1 mutant line; assay: as above
Experimental: as §1

[11] = test system: Cesa1_P1010L, fpx2-2 mutant line; assay: as above
Experimental: as §1

[12] = test system: Cesa3_S1037F, fpx1-2 mutant line; assay: as above
Experimental: as §1

[13] = test system: Cesa3_S1040L, fpx1-1 mutant line; assay: as above
Experimental: as §1

[14] = test system: Cesa3_S983F, fpx1-3 mutant line; assay: as above
Experimental: as §1

[15] = test system: transgenic Arabidopsis plants, construct AtCESA1 wt; assay: Growth inhibition of transgenic Arabidopsis in 48-well plates, tolerance factor from IC50; conditions: SEQ ID NO 1, growth inhibition seven to ten days after seeding
Description: (§2) For transformation of Arabidopsis thaliana, wildtype or mutated cellulose synthase sequences based on one of the following sequences SEQ ID NO: 72, 73, 74, 75, 76, or 77, are cloned with standard cloning techniques as described in Sambrook et al. (Molecular cloning (2001) Cold Spring Harbor Laboratory Press) in a binary vector containing resistance marker gene cassette (AHAS) and mutated cellulose synthase sequence (marked as GOI) in between ubiquitin promoter (PcUbi) and nopaline synthase terminator (NOS) sequence. Binary plasmids are introduced to Agrobacterium tumefaciens for plant transformation. Arabidopsis thaliana are transformed with wildtype or mutated cellulose synthase sequences by floral dip method as decribed by McElver and Singh (WO 2008/124495). Transgenic Arabidopsis plants are subjected to TaqMan analysis for analysis of the number of integration loci.
(§3) Transgenic Arabidopsis thaliana plants are assayed for improved tolerance to azine herbicides like e. g. 6-cyclopentyl-N4-(2,3,4,5,6-pentafluorophenyl)-1,3,5-triazine-2,4-diamine in 48-well plates. Therefore, T2 seeds are surface sterilized by stirring for 5 min in ethanol+water (70+30 by volume), rinsing one time with ethanol+water (70+30 by volume) and two times with sterile, deionized water. The seeds are resuspended in 0.1% agar dissolved in water (w/v) Four to five seeds per well are plated on solid nutrient medium consisting of half-strength murashige skoog nutrient solution, pH 5.8 (Murashige and Skoog (1962) Physiologia Plantarum 15: 473-497). Compounds are dissolved in dimethylsulfoxid (DMSO) and added to the medium prior solidification (final DMSO concentration 0.1%). Multi well plates are incubated in a growth chamber at 22° C., 75% relative humidity and 110 μmol Phot*m^−2*s^−1 with 14:10 h light:dark photoperiod. Growth inhibition is evaluated seven to ten days after seeding in comparison to wild type plants. Tolerance factors are calculated based on IC50 values of growth inhibition of transformed versus non-transformed Arabidopsis plants.

[16] = test system: transgenic Arabidopsis plants, construct AtCESA1_G1013R; assay: as above; conditions: SEQ ID NO 1, substitution G1013R, growth inhibition seven to ten days after seeding
Description: as §2, §3

[17] = test system: transgenic Arabidopsis plants, construct AtCESA3_S1037F; assay: as above; conditions: SEQ ID NO 3, substitution S1037F, growth inhibition seven to ten days after seeding
Description: as §2, §3

[18] = test system: transgenic Arabidopsis plants, construct AtCESA3_S1040L; assay: as above; conditions: SEQ ID NO 3, substitution S1040L, growth inhibition seven to ten days after seeding
Description: as §2, §3

[19] = test system: transgenic Arabidopsis plants, construct AtCESA3_wt; assay: as above; conditions: SEQ ID NO 3, growth inhibition seven to ten days after seeding
Description: as §2, §3

Cc1cccc(-n2nc(C(N)=O)nc2-c2ccccc2)c1 [1-(m-tolyl)-5-phenyl-1,2,4-triazole-3-carboxamide, reference compound]
Phytotox value on a scale from 0-100 (100 is 100% damage) (A. thaliana WT L. erecta [1]; 3.91 g ai/ha): 0 | Phytotox value on a scale from 0-100 (100 is 100% damage) (A. thaliana WT L. erecta [1]; 15.63 g ai/ha): 63 | Phytotox value on a scale from 0-100 (100 is 100% damage) (A. thaliana WT L. erecta [1]; 62.5 g ai/ha): 100 | Phytotox value on a scale from 0-100 (100 is 100% damage) (A. thaliana WT L. erecta [1]; 250 g ai/ha): 100 | Phytotox value on a scale from 0-100 (100 is 100% damage) ([2]; 3.91 g ai/ha): 0 | Phytotox value on a scale from 0-100 (100 is 100% damage) ([2]; 15.63 g ai/ha): 18 | Phytotox value on a scale from 0-100 (100 is 100% damage) ([2]; 62.5 g ai/ha): 30 | Phytotox value on a scale from 0-100 (100 is 100% damage) ([2]; 250 g ai/ha): 45 | Phytotox value on a scale from 0-100 (100 is 100% damage) ([3]; 3.91 g ai/ha): 5 | Phytotox value on a scale from 0-100 (100 is 100% damage) ([3]; 15.63 g ai/ha): 15 | Phytotox value on a scale from 0-100 (100 is 100% damage) ([3]; 62.5 g ai/ha): 20 | Phytotox value on a scale from 0-100 (100 is 100% damage) ([3]; 250 g ai/ha): 15 | Phytotox value on a scale from 0-100 (100 is 100% damage) ([4]; 3.91 g ai/ha): 0 | Phytotox value on a scale from 0-100 (100 is 100% damage) ([4]; 15.63 g ai/ha): 20 | Phytotox value on a scale from 0-100 (100 is 100% damage) ([4]; 62.5 g ai/ha): 13 | Phytotox value on a scale from 0-100 (100 is 100% damage) ([4]; 250 g ai/ha): 35 | Phytotox value on a scale from 0-100 (100 is 100% damage) ([5]; 3.91 g ai/ha): 0 | Phytotox value on a scale from 0-100 (100 is 100% damage) ([5]; 15.63 g ai/ha): 30 | Phytotox value on a scale from 0-100 (100 is 100% damage) ([5]; 62.5 g ai/ha): 23 | Phytotox value on a scale from 0-100 (100 is 100% damage) ([5]; 250 g ai/ha): 68 | Phytotox value on a scale from 0-100 (100 is 100% damage) ([6]; 3.91 g ai/ha): 38 | Phytotox value on a scale from 0-100 (100 is 100% damage) ([6]; 15.63 g ai/ha): 30 | Phytotox value on a scale from 0-100 (100 is 100% damage) ([6]; 62.5 g ai/ha): 0 | Phytotox value on a scale from 0-100 (100 is 100% damage) ([6]; 250 g ai/ha): 25 | Phytotox value on a scale from 0-100 (100 is 100% damage) ([7]; 3.91 g ai/ha): 0 | Phytotox value on a scale from 0-100 (100 is 100% damage) ([7]; 15.63 g ai/ha): 8 | Phytotox value on a scale from 0-100 (100 is 100% damage) ([7]; 62.5 g ai/ha): 5 | Phytotox value on a scale from 0-100 (100 is 100% damage) ([7]; 250 g ai/ha): 30 | Phytotox value on a scale from 0-100 (100 is 100% damage) (A. thaliana WT L. erecta [8]; 62.5 g ai/ha): 78 | Phytotox value on a scale from 0-100 (100 is 100% damage) (A. thaliana WT L. erecta [8]; 125 g ai/ha): 83 | Phytotox value on a scale from 0-100 (100 is 100% damage) (A. thaliana WT L. erecta [8]; 250 g ai/ha): 95 | Phytotox value on a scale from 0-100 (100 is 100% damage) ([9]; 62.5 g ai/ha): 23 | Phytotox value on a scale from 0-100 (100 is 100% damage) ([9]; 125 g ai/ha): 33 | Phytotox value on a scale from 0-100 (100 is 100% damage) ([9]; 250 g ai/ha): 45 | Phytotox value on a scale from 0-100 (100 is 100% damage) ([10]; 62.5 g ai/ha): 23 | Phytotox value on a scale from 0-100 (100 is 100% damage) ([10]; 125 g ai/ha): 33 | Phytotox value on a scale from 0-100 (100 is 100% damage) ([10]; 250 g ai/ha): 40 | Phytotox value on a scale from 0-100 (100 is 100% damage) ([11]; 62.5 g ai/ha): 15 | Phytotox value on a scale from 0-100 (100 is 100% damage) ([11]; 125 g ai/ha): 15 | Phytotox value on a scale from 0-100 (100 is 100% damage) ([11]; 250 g ai/ha): 48 | Phytotox value on a scale from 0-100 (100 is 100% damage) ([12]; 62.5 g ai/ha): 30 | Phytotox value on a scale from 0-100 (100 is 100% damage) ([12]; 125 g ai/ha): 50 | Phytotox value on a scale from 0-100 (100 is 100% damage) ([12]; 250 g ai/ha): 68 | Phytotox value on a scale from 0-100 (100 is 100% damage) ([13]; 62.5 g ai/ha): 0 | Phytotox value on a scale from 0-100 (100 is 100% damage) ([13]; 125 g ai/ha): 23 | Phytotox value on a scale from 0-100 (100 is 100% damage) ([13]; 250 g ai/ha): 55 | Phytotox value on a scale from 0-100 (100 is 100% damage) ([14]; 62.5 g ai/ha): 28 | Phytotox value on a scale from 0-100 (100 is 100% damage) ([14]; 125 g ai/ha): 23 | Phytotox value on a scale from 0-100 (100 is 100% damage) ([14]; 250 g ai/ha): 53 | Relative tolerance rate (non-transgenic = 1.0) [15]: 3 | Relative tolerance rate (non-transgenic = 1.0) [16]: 33 | Relative tolerance rate (non-transgenic = 1.0) [17]: 1333 | Relative tolerance rate (non-transgenic = 1.0) [18]: 2 | Relative tolerance rate (non-transgenic = 1.0) [19]: 4
